Test results as given in publication PMC6811774, “Potent, selective, and subunit‐dependent activation of TRPC5 channels by a xanthine derivative” (British Journal of Pharmacology, 2019).

Biological target: TRPC5–C1 channels (Homo sapiens, UniProt P48995+Q9UL62)
Assay: [Ca2+]i measurement in (Tet+) HEK T-REx cells expressing hTRPC5-C1 concatemer
Format: cell-based
Method: HEK T‐REx™ cell line was transfected with TRPC5‐SYFP2 or TRPC4‐SYFP2 using FuGENE® HD transfection reagent. After 48 hr, cells were put under antibiotic selection using 400 μg·ml^−1 zeocin and 10 μg·ml^−1 blasticidin S (Invivogen, San Diego, California, USA). Medium changes were carried out regularly to remove dead cells. HEK T‐REx cells expressing tetracycline‐inducible human TRPC5, TRPC4–C1, and TRPC5–C1 were created as described previously (Akbulut et al., 2015; Ludlow et al., 2017; Rubaiy, Ludlow, Henrot, et al., 2017). TRPC5–C1 and TRPC4–C1 concatemers allow expression of functional channels with defined 2:2 stoichiometry that display ion permeability and current–voltage relationships distinct from those of homomeric TRPC4:C4 or TRPC5:C5 channels and consistent with those obtained upon co‐expression of TRPC1 with TRPC4 or TRPC5 (Ludlow et al., 2017; Rubaiy, Ludlow, Bon, & Beech, 2017; Rubaiy, Ludlow, Henrot, et al., 2017). Cells were cultured in DMEM‐F12 GlutaMAX (Invitrogen, Paisley, UK) containing 10% FBS (Sigma‐Aldrich, Gillingham, UK), with the addition of blasticidin (10 μg·ml^−1) and zeocin (400 μg·ml^−1) to maintain the stable incorporation of the tetracycline repressor and the channel of interest, respectively. Expression of proteins was induced by the addition of tetracycline (1 μg·ml^−1, 24 hr). Cells were maintained in a humidified incubator with 5% CO2 at 37°C. HEK 293 cells stably expressing tetracycline‐regulated human http://www.guidetopharmacology.org/GRAC/ObjectDisplayForward?objectId=494 were prepared similarly and have also been described previously (McHugh, Flemming, Xu, Perraud, & Beech, 2003). For experiments using transient co‐expression of TRPC1 and TRPC5, HEK cells at 40–60% confluency were transfected with pIRES2‐AcGFP1 and pIRES2‐DsRed‐Express2 plasmids containing human TRPC1 and TRPC5, respectively, using Lipofectamine 3000 (ThermoFisher Scientific, Yokohama, Japan). All experiments using transient expression were performed within 48 hr after transfection. […]

Sequence of TRPC5–C1 channels (Q9UL62 whole entry): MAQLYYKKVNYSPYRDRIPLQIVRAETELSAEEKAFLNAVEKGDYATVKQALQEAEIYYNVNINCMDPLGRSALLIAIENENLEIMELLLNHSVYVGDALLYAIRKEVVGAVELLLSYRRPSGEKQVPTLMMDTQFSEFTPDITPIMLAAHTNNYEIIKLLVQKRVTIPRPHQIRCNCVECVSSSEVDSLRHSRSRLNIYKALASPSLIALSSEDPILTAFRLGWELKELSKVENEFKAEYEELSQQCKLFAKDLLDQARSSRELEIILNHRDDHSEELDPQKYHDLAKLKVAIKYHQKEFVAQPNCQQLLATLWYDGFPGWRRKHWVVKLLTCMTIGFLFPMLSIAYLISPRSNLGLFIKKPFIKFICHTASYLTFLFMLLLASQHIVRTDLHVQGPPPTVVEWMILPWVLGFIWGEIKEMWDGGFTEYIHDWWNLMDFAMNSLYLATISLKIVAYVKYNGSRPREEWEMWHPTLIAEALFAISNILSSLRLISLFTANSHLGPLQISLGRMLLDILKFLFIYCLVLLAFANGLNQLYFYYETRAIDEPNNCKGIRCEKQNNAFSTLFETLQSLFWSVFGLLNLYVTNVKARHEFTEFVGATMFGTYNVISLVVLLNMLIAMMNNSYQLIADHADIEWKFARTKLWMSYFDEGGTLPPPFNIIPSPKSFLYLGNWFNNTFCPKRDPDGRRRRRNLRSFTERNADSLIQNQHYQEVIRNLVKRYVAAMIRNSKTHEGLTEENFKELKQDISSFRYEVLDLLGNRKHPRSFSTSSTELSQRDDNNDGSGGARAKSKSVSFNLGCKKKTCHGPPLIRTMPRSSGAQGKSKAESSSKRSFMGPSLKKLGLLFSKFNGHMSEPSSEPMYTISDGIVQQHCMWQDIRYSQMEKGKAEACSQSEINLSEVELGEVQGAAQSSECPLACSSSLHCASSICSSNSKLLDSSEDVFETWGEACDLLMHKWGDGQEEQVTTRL
Sequence of TRPC5–C1 channels (P48995 whole entry): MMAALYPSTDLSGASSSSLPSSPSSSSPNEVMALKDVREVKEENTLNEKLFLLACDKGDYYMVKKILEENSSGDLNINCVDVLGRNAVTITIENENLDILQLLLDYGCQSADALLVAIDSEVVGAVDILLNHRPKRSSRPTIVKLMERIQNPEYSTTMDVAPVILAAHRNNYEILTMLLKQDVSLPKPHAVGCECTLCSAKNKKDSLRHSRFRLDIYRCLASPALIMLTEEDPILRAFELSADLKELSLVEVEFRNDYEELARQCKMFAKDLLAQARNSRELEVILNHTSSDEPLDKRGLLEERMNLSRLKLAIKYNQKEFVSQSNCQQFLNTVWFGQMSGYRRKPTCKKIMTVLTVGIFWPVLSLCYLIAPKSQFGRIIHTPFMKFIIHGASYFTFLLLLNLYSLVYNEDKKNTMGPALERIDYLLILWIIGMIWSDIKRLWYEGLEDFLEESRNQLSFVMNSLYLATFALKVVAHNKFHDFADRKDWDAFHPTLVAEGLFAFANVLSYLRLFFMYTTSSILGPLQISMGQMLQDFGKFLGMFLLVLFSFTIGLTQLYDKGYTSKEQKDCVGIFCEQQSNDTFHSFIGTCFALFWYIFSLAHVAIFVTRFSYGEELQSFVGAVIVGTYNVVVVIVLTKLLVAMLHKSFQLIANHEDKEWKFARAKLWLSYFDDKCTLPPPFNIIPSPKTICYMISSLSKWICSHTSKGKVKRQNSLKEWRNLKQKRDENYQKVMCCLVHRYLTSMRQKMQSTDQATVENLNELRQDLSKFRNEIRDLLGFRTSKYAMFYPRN

Compound: Cn1c(=O)n(CCCO)c(=O)c2c1nc(Oc1ccc(Cl)c(OC(F)(F)F)c1)n2Cc1ccc(Cl)cc1 [AM237]
- Hill slope, inhibition of EA response: -1.2
- Effect of pre-incubation on basal [Ca2+]i (0.1–100 nM AM237): did not raise
- Activation upon acute administration ([Ca2+]i) (3-300 nM AM237): lack of activation
